Assay [1] has as its target Cannabinoid receptor 1 (Homo sapiens, UniProt P21554). Type of assay: functional, cell-based.
Assay [2] has as its target T1, Muscarinic acetylcholine receptor M2 (Homo sapiens, UniProt P08172).
T1 sequence (P08172 whole entry): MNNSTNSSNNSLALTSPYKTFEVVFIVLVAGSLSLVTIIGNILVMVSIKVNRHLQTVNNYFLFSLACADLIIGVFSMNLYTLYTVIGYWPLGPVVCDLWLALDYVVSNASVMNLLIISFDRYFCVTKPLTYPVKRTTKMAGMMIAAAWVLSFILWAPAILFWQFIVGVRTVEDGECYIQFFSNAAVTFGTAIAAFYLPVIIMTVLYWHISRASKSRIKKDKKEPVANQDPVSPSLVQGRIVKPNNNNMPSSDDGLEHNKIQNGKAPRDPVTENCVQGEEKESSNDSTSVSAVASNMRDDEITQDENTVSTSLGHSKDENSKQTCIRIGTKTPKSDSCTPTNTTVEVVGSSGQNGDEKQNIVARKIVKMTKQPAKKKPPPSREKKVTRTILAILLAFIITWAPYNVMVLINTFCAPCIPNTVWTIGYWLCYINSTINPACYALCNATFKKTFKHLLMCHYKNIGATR
The class given is functional, cell-based.

The target of assay [3] is 5-hydroxytryptamine receptor 2A (Homo sapiens, UniProt P28223). The class given is functional, cell-based.
In assay [4] the target is Glutamate receptor ionotropic, NMDA 1 (Rattus norvegicus, UniProt P35439).
Assay [5] has as its target Gamma-aminobutyric acid receptor subunit alpha-1 (Rattus norvegicus, UniProt P62813). Type of assay: functional.
Assay [6] has as its target Vasopressin V1a receptor (Homo sapiens, UniProt P37288).
Assay [7] deals with cGMP-inhibited 3',5'-cyclic phosphodiesterase 3A (Homo sapiens, UniProt Q14432). The class given is functional.
Sequence of cGMP-inhibited 3',5'-cyclic phosphodiesterase 3A (Q14432 whole entry): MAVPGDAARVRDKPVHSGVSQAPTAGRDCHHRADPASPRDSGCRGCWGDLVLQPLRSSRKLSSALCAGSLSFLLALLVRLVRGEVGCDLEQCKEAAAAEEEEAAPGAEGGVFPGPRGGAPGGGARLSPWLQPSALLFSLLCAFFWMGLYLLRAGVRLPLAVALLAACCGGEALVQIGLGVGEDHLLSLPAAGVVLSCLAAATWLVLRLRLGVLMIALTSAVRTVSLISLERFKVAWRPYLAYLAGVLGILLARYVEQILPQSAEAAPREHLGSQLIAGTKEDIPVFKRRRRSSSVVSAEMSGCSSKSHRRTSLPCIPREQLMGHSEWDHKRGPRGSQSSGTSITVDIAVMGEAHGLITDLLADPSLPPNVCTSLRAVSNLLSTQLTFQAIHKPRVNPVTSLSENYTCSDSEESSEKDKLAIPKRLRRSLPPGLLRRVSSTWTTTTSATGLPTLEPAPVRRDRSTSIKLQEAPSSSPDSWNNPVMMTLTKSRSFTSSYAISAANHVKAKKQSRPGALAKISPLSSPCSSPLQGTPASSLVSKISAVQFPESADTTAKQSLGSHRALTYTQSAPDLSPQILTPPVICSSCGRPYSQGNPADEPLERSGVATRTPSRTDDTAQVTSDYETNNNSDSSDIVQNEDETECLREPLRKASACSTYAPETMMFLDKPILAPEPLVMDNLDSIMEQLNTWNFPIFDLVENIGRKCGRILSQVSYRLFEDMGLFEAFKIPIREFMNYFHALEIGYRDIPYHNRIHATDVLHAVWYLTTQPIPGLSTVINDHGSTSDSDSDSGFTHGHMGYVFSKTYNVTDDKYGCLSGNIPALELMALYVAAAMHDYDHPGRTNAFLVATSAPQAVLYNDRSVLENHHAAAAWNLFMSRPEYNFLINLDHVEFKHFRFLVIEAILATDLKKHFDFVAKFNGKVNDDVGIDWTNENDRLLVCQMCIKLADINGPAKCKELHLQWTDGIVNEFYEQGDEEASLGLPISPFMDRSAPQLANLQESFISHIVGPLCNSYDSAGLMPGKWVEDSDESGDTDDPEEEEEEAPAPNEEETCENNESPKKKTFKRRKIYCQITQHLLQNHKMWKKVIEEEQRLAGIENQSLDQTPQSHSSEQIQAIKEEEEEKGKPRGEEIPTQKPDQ
In assay [8] the target is Histamine H3 receptor (Homo sapiens, UniProt Q9Y5N1).
Assay [9] concerns the target Histamine H1 receptor (Homo sapiens, UniProt P35367).
In assay [10] the target is T2, Muscarinic acetylcholine receptor M1 (Homo sapiens, UniProt P11229).
T2 sequence (P11229 whole entry): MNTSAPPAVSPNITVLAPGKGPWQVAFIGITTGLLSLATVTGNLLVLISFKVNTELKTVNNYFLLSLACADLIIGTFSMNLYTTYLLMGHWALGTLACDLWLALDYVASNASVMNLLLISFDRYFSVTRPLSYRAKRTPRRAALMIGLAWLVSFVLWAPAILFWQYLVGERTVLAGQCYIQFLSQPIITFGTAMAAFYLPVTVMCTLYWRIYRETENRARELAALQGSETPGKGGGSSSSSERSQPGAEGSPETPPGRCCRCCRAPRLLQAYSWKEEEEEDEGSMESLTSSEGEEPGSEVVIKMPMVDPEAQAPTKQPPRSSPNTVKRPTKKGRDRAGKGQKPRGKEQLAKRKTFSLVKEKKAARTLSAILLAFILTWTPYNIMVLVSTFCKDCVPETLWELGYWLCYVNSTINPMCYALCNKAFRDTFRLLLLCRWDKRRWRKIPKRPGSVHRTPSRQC
The class given is functional.

Assay [11] addresses Vasopressin V2 receptor (Homo sapiens, UniProt P30518).
In assay [12] the target is Adenosine receptor A2a (Homo sapiens, UniProt P29274).
Sequence of Adenosine receptor A2a (P29274 whole entry): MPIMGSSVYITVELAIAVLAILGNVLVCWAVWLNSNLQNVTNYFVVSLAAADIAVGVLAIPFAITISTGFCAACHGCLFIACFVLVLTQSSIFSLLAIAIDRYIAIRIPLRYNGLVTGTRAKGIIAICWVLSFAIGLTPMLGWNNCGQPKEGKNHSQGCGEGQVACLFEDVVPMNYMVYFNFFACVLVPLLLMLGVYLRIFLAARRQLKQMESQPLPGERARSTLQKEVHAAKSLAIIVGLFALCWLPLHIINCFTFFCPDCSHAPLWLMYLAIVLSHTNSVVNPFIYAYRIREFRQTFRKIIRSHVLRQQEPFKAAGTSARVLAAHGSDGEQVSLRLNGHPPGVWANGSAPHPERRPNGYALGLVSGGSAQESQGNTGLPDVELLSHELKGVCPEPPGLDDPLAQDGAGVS
Assay [13] addresses Beta-1 adrenergic receptor (Homo sapiens, UniProt P08588). The class given is functional.
Assay [14] addresses Histamine H2 receptor (Homo sapiens, UniProt P25021). Type of assay: functional, cell-based.
The target of assay [15] is Growth hormone secretagogue receptor type 1 (Homo sapiens, UniProt Q92847).
Sequence of Growth hormone secretagogue receptor type 1 (Q92847 whole entry): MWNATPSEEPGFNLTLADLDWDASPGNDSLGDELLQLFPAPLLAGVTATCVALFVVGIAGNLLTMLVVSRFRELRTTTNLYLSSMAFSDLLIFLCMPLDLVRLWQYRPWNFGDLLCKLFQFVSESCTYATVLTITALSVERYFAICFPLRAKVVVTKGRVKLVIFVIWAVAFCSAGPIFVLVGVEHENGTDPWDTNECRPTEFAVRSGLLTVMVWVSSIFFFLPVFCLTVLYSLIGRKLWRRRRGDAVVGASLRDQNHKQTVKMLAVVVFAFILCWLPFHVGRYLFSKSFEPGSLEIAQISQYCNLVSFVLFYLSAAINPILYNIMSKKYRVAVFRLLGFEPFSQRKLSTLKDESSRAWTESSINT
The target in assay [16] is Voltage-dependent L-type calcium channel subunit alpha-1C (Rattus norvegicus, UniProt P22002). Type of assay: functional.
Sequence of Voltage-dependent L-type calcium channel subunit alpha-1C (P22002 whole entry): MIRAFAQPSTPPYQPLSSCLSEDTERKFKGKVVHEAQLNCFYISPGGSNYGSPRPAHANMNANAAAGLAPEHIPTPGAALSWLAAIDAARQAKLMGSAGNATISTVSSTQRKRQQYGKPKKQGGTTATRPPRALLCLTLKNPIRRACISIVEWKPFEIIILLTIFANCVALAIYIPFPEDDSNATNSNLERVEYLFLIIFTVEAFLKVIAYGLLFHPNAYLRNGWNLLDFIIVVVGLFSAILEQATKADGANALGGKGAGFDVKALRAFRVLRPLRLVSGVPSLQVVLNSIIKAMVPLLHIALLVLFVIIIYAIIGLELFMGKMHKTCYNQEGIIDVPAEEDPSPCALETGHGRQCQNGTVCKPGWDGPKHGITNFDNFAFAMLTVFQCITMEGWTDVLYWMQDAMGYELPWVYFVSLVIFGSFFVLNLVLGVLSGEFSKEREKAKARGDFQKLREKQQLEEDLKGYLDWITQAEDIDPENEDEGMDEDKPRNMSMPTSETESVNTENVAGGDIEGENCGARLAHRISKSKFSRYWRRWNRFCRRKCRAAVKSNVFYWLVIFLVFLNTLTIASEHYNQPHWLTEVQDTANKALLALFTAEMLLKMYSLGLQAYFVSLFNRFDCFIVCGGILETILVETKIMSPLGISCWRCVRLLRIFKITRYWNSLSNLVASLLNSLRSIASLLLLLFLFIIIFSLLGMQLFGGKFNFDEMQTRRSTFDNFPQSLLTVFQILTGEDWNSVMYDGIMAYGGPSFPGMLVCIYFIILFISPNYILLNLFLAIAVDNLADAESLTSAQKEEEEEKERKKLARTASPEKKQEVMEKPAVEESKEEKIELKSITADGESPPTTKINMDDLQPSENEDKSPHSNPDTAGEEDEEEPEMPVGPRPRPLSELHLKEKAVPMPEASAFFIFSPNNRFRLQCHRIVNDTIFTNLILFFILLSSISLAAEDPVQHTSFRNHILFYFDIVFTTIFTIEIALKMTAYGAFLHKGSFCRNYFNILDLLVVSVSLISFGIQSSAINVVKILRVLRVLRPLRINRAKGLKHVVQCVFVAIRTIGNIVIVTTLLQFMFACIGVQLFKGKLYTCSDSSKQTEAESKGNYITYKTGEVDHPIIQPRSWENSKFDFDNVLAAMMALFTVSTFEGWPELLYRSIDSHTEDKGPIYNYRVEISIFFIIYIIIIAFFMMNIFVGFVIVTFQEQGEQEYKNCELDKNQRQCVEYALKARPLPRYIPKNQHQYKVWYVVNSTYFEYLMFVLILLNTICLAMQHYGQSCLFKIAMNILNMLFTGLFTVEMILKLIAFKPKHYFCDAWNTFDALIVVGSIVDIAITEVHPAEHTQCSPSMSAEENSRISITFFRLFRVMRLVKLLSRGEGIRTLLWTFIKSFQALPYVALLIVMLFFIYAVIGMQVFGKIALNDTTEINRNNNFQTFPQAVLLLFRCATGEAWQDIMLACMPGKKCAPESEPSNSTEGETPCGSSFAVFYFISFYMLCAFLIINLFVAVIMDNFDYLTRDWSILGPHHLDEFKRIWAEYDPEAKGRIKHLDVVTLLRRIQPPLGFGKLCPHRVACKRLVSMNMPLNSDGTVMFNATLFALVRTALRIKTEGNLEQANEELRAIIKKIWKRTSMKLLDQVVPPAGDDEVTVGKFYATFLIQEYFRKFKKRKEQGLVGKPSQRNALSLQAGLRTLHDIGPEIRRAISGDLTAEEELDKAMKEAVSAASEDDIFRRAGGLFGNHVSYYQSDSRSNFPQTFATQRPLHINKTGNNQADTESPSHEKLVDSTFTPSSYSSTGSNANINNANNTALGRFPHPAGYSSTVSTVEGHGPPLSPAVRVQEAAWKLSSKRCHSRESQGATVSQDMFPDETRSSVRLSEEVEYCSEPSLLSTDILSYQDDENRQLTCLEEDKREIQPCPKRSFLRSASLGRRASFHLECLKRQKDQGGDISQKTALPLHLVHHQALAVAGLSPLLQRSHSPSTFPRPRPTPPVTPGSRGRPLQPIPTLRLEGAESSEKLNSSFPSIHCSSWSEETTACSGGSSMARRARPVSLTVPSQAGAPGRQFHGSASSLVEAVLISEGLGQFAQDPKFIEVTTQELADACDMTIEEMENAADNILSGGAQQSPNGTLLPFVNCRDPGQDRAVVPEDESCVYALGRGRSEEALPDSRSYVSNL
In assay [17] the target is 3',5'-cyclic-AMP phosphodiesterase 4D (Homo sapiens, UniProt Q08499). Type of assay: functional.
For assay [18], the target named is T3, 5-hydroxytryptamine receptor 1A (Homo sapiens, UniProt P08908).
T3 sequence (P08908 whole entry): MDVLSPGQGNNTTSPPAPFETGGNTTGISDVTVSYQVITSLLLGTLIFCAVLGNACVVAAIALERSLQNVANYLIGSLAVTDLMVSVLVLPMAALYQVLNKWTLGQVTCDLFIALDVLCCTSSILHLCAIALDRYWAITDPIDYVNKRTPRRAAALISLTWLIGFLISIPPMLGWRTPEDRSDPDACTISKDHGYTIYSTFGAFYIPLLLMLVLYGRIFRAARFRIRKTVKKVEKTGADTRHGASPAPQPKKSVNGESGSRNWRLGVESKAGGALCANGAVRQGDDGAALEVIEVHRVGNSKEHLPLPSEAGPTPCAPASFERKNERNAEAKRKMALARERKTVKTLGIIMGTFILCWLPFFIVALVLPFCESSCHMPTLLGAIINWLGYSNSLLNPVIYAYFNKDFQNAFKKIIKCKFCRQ
Type of assay: functional, cell-based.

Assay [19] deals with T4, Mu-type opioid receptor (Homo sapiens, UniProt P35372). Briefly: biochemical. The class given is functional.
Assay [20] deals with T1, Muscarinic acetylcholine receptor M2. Type of assay: functional, cell-based. The source holds these as a separate data set.
Assay [21] concerns the target T4, Mu-type opioid receptor.
Also: assay procedure not described here.

Sequence of Histamine H2 receptor (P25021 whole entry): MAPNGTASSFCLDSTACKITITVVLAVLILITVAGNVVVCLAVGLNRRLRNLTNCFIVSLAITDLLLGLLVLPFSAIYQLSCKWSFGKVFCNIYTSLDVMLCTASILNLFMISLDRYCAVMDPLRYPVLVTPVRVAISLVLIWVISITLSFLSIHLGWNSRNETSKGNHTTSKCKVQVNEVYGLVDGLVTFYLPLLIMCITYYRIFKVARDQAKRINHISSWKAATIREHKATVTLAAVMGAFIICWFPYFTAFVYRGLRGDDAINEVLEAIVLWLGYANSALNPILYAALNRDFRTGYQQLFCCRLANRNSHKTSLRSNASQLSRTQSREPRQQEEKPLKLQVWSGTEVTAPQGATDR
Sequence of Vasopressin V2 receptor (P30518 whole entry): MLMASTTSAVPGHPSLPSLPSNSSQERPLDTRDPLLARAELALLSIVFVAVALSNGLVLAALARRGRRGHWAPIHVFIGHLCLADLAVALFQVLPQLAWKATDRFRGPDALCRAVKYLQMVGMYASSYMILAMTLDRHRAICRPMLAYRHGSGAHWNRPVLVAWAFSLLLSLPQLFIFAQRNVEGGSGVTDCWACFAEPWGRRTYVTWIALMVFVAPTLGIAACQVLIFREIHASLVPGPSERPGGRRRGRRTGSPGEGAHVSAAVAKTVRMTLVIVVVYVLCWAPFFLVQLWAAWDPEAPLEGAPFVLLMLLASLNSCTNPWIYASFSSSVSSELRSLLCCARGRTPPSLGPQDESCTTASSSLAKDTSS

In the case of `CC(C)N(CCCCOCC(=O)O)c1cnc(-c2ccccc2)c(-c2ccccc2)n1`, the AC50 in assay [1], in [2], in assay [3], in [4], in [5] and in assay [6] was over 30 µM throughout. For the same compound, the AC50 in assay [7], in assay [8], in [9], in assay [10], in assay [11] and in assay [12] was over 30 µM in each case. Further, the AC50 (commonly the concentration giving half of the maximal activity seen) in [13] was over 30 µM; in assay [14] it was over 30 µM; in assay [15], over 30 µM; in assay [16], over 30 µM; in [17], 14.3 µM; in assay [18], over 30 µM. Also, the half-maximal activity concentration (AC50) in assay [19] and in assay [20] was over 30 µM in each case.

For the compound `Oc1ccc(CCNCCCCCCNCCc2ccccc2)cc1O` [DOPEXAMINE], the AC50 in assay [1], in assay [2], in assay [3], in [4], in assay [5] and in assay [6] was over 30 µM in each case. Moreover, the AC50 in assay [7] was over 30 µM; in assay [8] it was 11 µM; in assay [9], 15 µM; in [10] it was 14 µM; in [11] it was over 30 µM; in assay [12], over 30 µM. Also, the concentration at half-maximal activity (AC50) was over 30 µM in assay [13]; over 30 µM in assay [14]; over 30 µM in assay [15]; over 30 µM in [16]; 29 µM in assay [17]; over 30 µM in assay [18]. Further, the AC50 in [19] and in assay [20] was over 30 µM in each case.

On to `CC/C=C\C/C=C\C/C=C\C/C=C\C/C=C\CCCC(=O)OCC` [ICOSAPENT ETHYL], for which the half-maximal activity concentration (AC50) in assay [1], in assay [2], in [3], in assay [4], in [5] and in assay [6] was over 30 µM throughout. The AC50 in [7] was over 30 µM; in [8], over 30 µM; in assay [9] it was over 30 µM; in [10], over 30 µM; in assay [11], over 10 µM; in [12], over 30 µM. Further, the AC50 in [13] is over 30 µM; in assay [14] it was over 30 µM; in [15] it was over 30 µM; in assay [16], over 30 µM; in assay [17], 12 µM; in assay [18], over 30 µM. For the same compound, the AC50 in assay [19] and in [20] was over 30 µM throughout.

Turning to `CN1CCN=C(c2ccccc2)c2cc(Cl)ccc21` [MEDAZEPAM], the AC50 in assay [1] was over 30 µM; in assay [2], over 30 µM; in [3] it was over 30 µM; in assay [4], over 30 µM; in assay [5], 2.1 µM; in [6] it was over 30 µM. Further, the AC50 in assay [7], in [8], in assay [9], in assay [10], in assay [11] and in [12] was over 30 µM throughout. In addition, the AC50 is over 30 µM in assay [13]; over 30 µM in assay [14]; over 30 µM in [15]; over 30 µM in assay [16]; 5.2 µM in assay [17]; over 30 µM in assay [18]. The AC50 in assay [19] and in [20] was over 30 µM each time.

As for `C=CCN1CCc2nc(N)sc2CC1` [TALIPEXOLE], the half-maximal activity concentration (AC50) in assay [1] was over 30 µM; in assay [2], over 30 µM; in assay [3], 11 µM; in assay [4] it was over 30 µM; in [5], over 30 µM; in assay [6], over 30 µM. Besides, the AC50 in assay [7] was over 30 µM; in [8], 3.3 µM; in assay [9], 28 µM; in assay [10] it was over 30 µM; in assay [11] it was over 30 µM; in assay [12] it was over 30 µM. Further, the half-maximal activity concentration (AC50) in assay [13], in assay [14], in [15], in assay [16], in assay [17] and in assay [18] was over 30 µM throughout. Further, the half-maximal activity concentration (AC50) in assay [19] and in assay [20] was over 30 µM each time.

In the case of `CCOC(=O)[C@@H](N)Cc1ccc(-c2cc(O[C@H](c3ccc(Cl)cc3-n3ccc(C)n3)C(F)(F)F)nc(N)n2)cc1` [TELOTRISTAT ETHYL], the half-maximal activity concentration (AC50) in assay [1], in [2], in assay [3], in assay [4], in assay [5] and in assay [6] was over 30 µM each time. In addition, the AC50 in assay [7], in [8], in assay [9], in assay [10], in assay [11] and in [12] was over 30 µM each time. The AC50 in assay [13] was over 30 µM; in [14], over 30 µM; in assay [15], 28 µM; in assay [21], over 30 µM; in assay [17], 5 µM; in assay [20], over 30 µM.

Take `Cn1c(=O)c2c(ncn2CCOC(=O)C(C)(C)Oc2ccc(Cl)cc2)n(C)c1=O` [THEOFIBRATE]: the half-maximal activity concentration (AC50) in assay [1], in assay [2], in assay [3], in assay [4], in assay [5] and in assay [6] was over 30 µM each time. Further, the AC50 in assay [7], in [8], in assay [9], in [10], in assay [11] and in [12] was over 30 µM in each case. The AC50 in assay [13], in [14], in [15], in assay [16], in assay [17] and in assay [18] was over 30 µM each time. Moreover, the half-maximal activity concentration (AC50) in assay [19] and in assay [20] was over 30 µM throughout.

(Values after ChEMBL document CHEMBL5291721, “A preclinical secondary pharmacology resource illuminates target-adverse drug reaction associations of marketed drugs” (Nat Commun, 2023).)
